Experimental data: US20230139328A1, “DOSAGE FORMS FOR IMPROVING ORGAN TRANSPLANTATION, GRAFT VERSUS HOST DISEASE AND STEM CELLS TRANSPLANTS” (Aphios Corporation, priority 2020, published 2023)
Entries after “also recorded” stand apart in the source; their conditions may differ.

Key:
[1] = tested on: neutrophil migration across HUVEC; experiment: Neutrophil transendothelial migration (TEM) restoration studies with PKC inhibitors in HUVEC; type: cell-based, human; settings: 100 nM Bryostatin-1, 100 nM LTB4, 3 h
Procedure: HUVEC were pretreated with G0-6983, a PKC inhibitor with dose dependent specificities for classical vs. novel PKC isoforms for 30 minutes prior to addition of Bryostatin-1 (100 nM) to block neutrophil migration. […] Neutrophil migration towards 100 nM LTB4 was initiated by adding LTB4 to the lower well.
Neutrophil Transendothelial Migration (TEM) Restoration Studies: HUVECs were pretreated with Go-6983 (1, 10, 100 nM), or Go-6976 (1, 10,100 nM) for 30 minutes, then spiked with 100 nM Bryostatin-1 for 1 hour. HUVECs previously nucleofected with PKC-δ, -ε, or control siRNA were just treated in Bryostatin-1 for 1 hour. HUVECs were washed three times and placed in a new plate containing either 500 IL 100 nM LTB4, or HBSS alone for control. Neutrophils were allowed to migrate for 3 h at 37° C. Migration was stopped by removing the inserts and migration was measured using the MPO assay.
Myeloperoxidase Assay: Neutrophil migration was measured using myeloperoxidase (MPO) analysis. Cell culture inserts were first removed, and plates were spun at 1,500 RPM for 5 min. The supernatant was removed, and MPO activity was measured using TMB/peroxide as chromogen. The reaction was stopped with sulfuric acid and absorbance was read at 450 nm using a microplate reader. All experiments were performed n=6. Data was expressed as “% neutrophil migration”, which allowed cumulative statistical analysis to be done and account for unpreventable batch-to-batch variations.

[2] = tested on: PKC-δ siRNA nucleofected HUVEC; experiment: LTB4 mediated neutrophil migration across PKC-δ siRNA nucleofected HUVEC; type: cell-based, human; settings: 100 nM, 1 h; PKC-δ knockdown
From the text: Because studies in FIG. 8 could not discriminate between PKC-δ and […] isoforms mediating the effect of Bryostatin-1, we knocked down individual isoforms using siRNA technology. In order to verify that we could knock down particular isoforms of PKC, specifically PKC-8 and PKC-ε isoforms in HUVEC, siRNA which selectively bind to and eliminate human PKC-8 and PKC-ε mRNAs were nucleofected into HUVEC prior to migration studies. […] HUVEC cells treated using these approaches were then subjected to chemotaxis studies with Bryostatin-1 to elucidate the mechanism of Bryostatin-1 mediated inhibition of LTB4 induced PMN migration.
Neutrophil Transendothelial Migration (TEM) Restoration Studies: HUVECs were pretreated with Go-6983 (1, 10, 100 nM), or Go-6976 (1, 10,100 nM) for 30 minutes, then spiked with 100 nM Bryostatin-1 for 1 hour. […] Migration was stopped by removing the inserts and migration was measured using the MPO assay.
Myeloperoxidase Assay: Neutrophil migration was measured using myeloperoxidase (MPO) analysis. […] The supernatant was removed, and MPO activity was measured using TMB/peroxide as chromogen. The reaction was stopped with sulfuric acid and absorbance was read at 450 nm using a microplate reader. […] Data was expressed as “% neutrophil migration”, which allowed cumulative statistical analysis to be done and account for unpreventable batch-to-batch variations. […]

[3] = tested on: transplanted kidney; experiment: Porcine kidney auto-transplantation model (20 h cold storage, reperfusion); type: in vivo, German Landrace pigs; settings: pig
Procedure: We used the porcine kidney auto-transplantation model with the modified PET formulation of Bryostatin-1 in thirty-two female German Landrace pigs weighing 20 to 40 kg. Briefly, animals had surgery for graft retrieval followed by a standard graft cold storage time (CST) of 20 h. During CST, kidneys were preserved with histidine-tryptophan-ketoglutarate (HTK)-solution either supplemented with 100 nM Bryostatin-1 or an equivalent volume of placebo (PET formulation). Donor animals then had surgery again for renal auto-transplantation and the graft was transplanted orthotopically. Thus, the contralateral kidney was removed to measure specifically function of the transplanted kidney. Time of reperfusion was 8 h and sample collection included cortical renal biopsies, tissue block samples at the end of the study and blood as well as urine analyses.

[4] = cited from earlier work
[5] = HTK-solution with 100 nM Bryostatin-1 during 20 h cold storage vs placebo

CCC/C=C/C=C/C(=O)O[C@H]1/C(=C/C(=O)OC)C[C@H]2C[C@H]([C@@H](C)O)OC(=O)C[C@H](O)C[C@@H]3C[C@H](OC(C)=O)C(C)(C)[C@](O)(C[C@@H]4C/C(=C/C(=O)OC)C[C@H](/C=C/C(C)(C)[C@]1(O)O2)O4)O3 [Bryostatin-1]
effect on LTB4 induced neutrophil migration, HUVEC [1]: reversed; also recorded: significantly suppressed LTB4 induced migration | effect on LTB4 mediated neutrophil migration in PKC-δ siRNA nucleofected HUVEC [2]: restored the normal level of neutrophil trans endothelial migration; also recorded: will not inhibit LTB4 mediated neutrophil migration | serum/plasma and urinary inflammatory biomarkers ([3]; 100 nM Bryostatin-1 in HTK-solution): not altered | kidney histology scores at 6 hours ([3]; 100 nM Bryostatin-1 in HTK-solution, 6 hours): significantly improved | kidney ultrastructural damage scores [3, 5]: significantly reduced | neutrophils entering the re-perfused kidney [3, 5]: significantly prevented | major side effects associated with use ([4]; Phase II trials, combination with other drugs, cancers): myalgias, nausea, and vomiting | cardiovascular disturbances or edema ([4]; clinical use): no cardiovascular disturbances or evidence of edema have been observed | adverse effects at dosing ranges higher than 100 ng/ml plasma level ([4]; healthy subjects and cancer patients): no adverse effects
